# In patent US20250026721A1, “COMPOUNDS AND METHODS FOR MODULATING RAS-PI3K” (Vividion Therapeutics, Inc., priority 2023, published 2025):
# Target: T1, PIK3CA (Homo sapiens, UniProt P42336)
# T1 construct: endogenous in cells; host or cells: Jurkat cell lysate
# Assay: In vitro ELISA target engagement assay for PIK3CA in Jurkat cellular lysate (competition with PIK3CA Biotin Probe)
# Type: binding
# Details: 1 hour at rt, then 500 nM PIK3CA Biotin Probe, read-out: Elisa Target Engagement Assay (TE50)
# Procedure: Example 3. In Vitro ELISA Target Engagement Assay for […] Engagement of compounds on PIK3CA were assessed in Jurkat cellular lysate via a sandwich ELISA. A solution of PIK3CA Biotin Probe was generated at 10 mM and used in the biological testing. […] Treatment Protocol: Jurkat cellular lysate was generated from frozen cell pellets. Cells were thawed on ice and resuspended in cold Dulbecco's phosphate buffered saline (DPBS) (12 mL/300 e^6 cells) then lysed by probe sonication (12×3 second pulses). Jurkat lysate was plated (50 μl/well) in Armadillo 96 well PCR plates (Thermo Fisher catalog number AB2396). The lysate was treated with serial dilutions of test compounds up to 200 μM and incubated for 1 hour at rt. Following compound incubation, PIK3CA Biotin Probe was added to a final concentration of 500 nM, and lysate was mixed by pipetting gently and incubated for an additional 1 hour at rt. The mixture was then diluted in 75 μL Dilution buffer. The mixture was centrifuged for 5 minutes at 4122 g and stored at −80° C. until ELISA TE detection. ELISA TE Detection: Quantification of PIK3CA TE was initiated by coating of the ELISA plate (Thermo Scientific White 384-Well Immuno plates; Thermo Fisher catalog number 460372). The capture antibody was diluted in plating buffer (1:83) and added to the ELISA plate, 20 μl/well, overnight at 4° C. The plate was then washed twice with PBST, 100 μl/well, and blocked with addition of blocking buffer (100 μl/well, 1 hour at rt). During block, treated and probe labeled lysate was thawed. After Block, the block buffer was removed and the thawed lysate was added to the ELISA plate, 30 μl/well, for 1.5 hours at rt. Following lysate incubation, the assay plate was washed 3 times with PBST, 100 μl/well. The Neutravidin-HRP was then diluted (1:500 in dilution buffer) and added for 1 hour at rt, 20 μl/well. Following incubation, the assay plate was washed 4 times with PBST, 100 μl/well, HRP substrate was added to plate, 20 μl/well and luminescence signal was read (Clariostar Plate Reader). For each compound the potency of target engagement (TE50) was determined using Graphpad Prism.
# T1 sequence (P42336 whole entry): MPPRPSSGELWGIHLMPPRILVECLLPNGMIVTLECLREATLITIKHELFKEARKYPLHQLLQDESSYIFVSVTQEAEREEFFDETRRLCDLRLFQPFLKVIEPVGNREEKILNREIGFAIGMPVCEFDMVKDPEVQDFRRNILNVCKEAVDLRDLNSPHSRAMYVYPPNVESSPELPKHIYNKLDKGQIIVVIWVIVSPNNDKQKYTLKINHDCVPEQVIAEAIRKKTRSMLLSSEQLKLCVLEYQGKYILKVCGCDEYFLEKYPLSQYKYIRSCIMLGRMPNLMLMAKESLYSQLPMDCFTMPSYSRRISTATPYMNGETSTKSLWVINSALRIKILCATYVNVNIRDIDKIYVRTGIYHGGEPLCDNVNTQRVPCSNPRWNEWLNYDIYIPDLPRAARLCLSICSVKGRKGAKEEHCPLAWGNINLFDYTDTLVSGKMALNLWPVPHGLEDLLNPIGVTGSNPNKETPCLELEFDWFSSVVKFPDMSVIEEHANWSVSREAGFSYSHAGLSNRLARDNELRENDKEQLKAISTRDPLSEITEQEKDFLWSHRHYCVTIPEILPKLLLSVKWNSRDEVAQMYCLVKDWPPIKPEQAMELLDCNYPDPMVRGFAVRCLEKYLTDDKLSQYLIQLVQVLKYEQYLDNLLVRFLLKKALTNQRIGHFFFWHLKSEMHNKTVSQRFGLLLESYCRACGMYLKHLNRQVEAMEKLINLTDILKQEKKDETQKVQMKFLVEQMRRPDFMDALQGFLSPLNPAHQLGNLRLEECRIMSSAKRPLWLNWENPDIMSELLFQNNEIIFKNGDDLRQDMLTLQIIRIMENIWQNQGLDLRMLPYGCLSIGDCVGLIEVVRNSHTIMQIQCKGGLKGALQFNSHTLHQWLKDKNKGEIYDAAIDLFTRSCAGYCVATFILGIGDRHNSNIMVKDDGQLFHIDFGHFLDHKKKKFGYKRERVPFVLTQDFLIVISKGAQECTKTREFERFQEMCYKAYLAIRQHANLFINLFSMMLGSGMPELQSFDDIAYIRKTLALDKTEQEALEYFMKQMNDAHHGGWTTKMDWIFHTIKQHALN
# T1 sequence (P27986 whole entry partner): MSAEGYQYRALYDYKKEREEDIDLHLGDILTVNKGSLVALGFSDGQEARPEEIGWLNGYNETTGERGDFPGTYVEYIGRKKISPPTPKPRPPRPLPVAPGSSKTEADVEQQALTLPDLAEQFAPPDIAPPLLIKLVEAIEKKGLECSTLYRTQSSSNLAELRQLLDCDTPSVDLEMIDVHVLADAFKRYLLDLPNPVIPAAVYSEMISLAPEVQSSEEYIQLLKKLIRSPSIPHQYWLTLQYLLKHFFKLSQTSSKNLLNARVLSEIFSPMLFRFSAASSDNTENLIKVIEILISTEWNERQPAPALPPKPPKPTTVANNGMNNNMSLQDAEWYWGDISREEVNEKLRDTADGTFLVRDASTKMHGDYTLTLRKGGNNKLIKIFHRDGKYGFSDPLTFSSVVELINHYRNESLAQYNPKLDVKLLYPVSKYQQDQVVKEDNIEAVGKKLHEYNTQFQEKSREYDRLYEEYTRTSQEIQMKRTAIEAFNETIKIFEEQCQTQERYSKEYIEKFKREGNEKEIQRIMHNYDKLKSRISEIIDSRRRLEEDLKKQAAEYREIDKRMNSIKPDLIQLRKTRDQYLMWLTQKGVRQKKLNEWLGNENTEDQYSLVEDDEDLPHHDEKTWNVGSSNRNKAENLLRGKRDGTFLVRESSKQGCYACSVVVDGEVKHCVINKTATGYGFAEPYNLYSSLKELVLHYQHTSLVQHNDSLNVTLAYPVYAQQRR
row,SMILES,IC50
1,"C[C@H](/C=C\S(C)(=O)=O)NC(=O)C1(F)CCN(S(=O)(=O)c2ccc(Br)cc2-c2cccc(F)c2Cl)CC1 [Compound 52, (R,Z)-1-((5-bromo-2′-chloro-3′-fluoro-[1,1′-biphenyl]-2-yl)sulfonyl)-4-fluoro-N-(4-(methylsulfonyl)but-3-en-2-yl)piperidine-4-carboxamide]",140 nM
2,"Cc1ccc(-c2cc(Br)ccc2S(=O)(=O)N2CCC(F)(C(=O)N[C@H](C)/C=C\S(C)(=O)=O)CC2)c(Cl)c1 [Compound 53, (R,Z)-1-((5-bromo-2′-chloro-4′-methyl-[1,1′-biphenyl]-2-yl)sulfonyl)-4-fluoro-N-(4-(methylsulfonyl)but-3-en-2-yl)piperidine-4-carboxamide]",960 nM
3,"C[C@H](/C=C\S(C)(=O)=O)NC(=O)C1(F)CCN(S(=O)(=O)c2ccc(Br)cc2-c2ccccc2C(F)(F)F)CC1 [Compound 54, (R,Z)-1-((5-bromo-2′-(trifluoromethyl)-[1,1′-biphenyl]-2-yl)sulfonyl)-4-fluoro-N-(4-(methylsulfonyl)but-3-en-2-yl)piperidine-4-carboxamide]",860 nM
4,"C[C@H](/C=C\S(C)(=O)=O)NC(=O)C1(F)CCN(S(=O)(=O)c2ccc(Br)cc2-c2cccc(Cl)c2)CC1 [Compound 55, (R,Z)-1-((5-bromo-3′-chloro-[1,1′-biphenyl]-2-yl)sulfonyl)-4-fluoro-N-(4-(methylsulfonyl)but-3-en-2-yl)piperidine-4-carboxamide]",710 nM
5,"Cc1c(F)cccc1-c1cc(Br)ccc1S(=O)(=O)N1CCC(F)(C(=O)N[C@H](C)/C=C\S(C)(=O)=O)CC1 [Compound 56, (R,Z)-1-((5-bromo-3′-fluoro-2′-methyl-[1,1′-biphenyl]-2-yl)sulfonyl)-4-fluoro-N-(4-(methylsulfonyl)but-3-en-2-yl)piperidine-4-carboxamide]",150 nM
6,"C[C@H](/C=C\S(C)(=O)=O)NC(=O)C1(F)CCN(S(=O)(=O)c2ccc(Br)cc2-c2ccccc2)CC1 [Compound 57, (R,Z)-1-((5-bromo-[1,1′-biphenyl]-2-yl)sulfonyl)-4-fluoro-N-(4-(methylsulfonyl)but-3-en-2-yl)piperidine-4-carboxamide]",580 nM
7,"O=C(N[C@@H]1C=CS(=O)(=O)C1)C1(F)CCN(S(=O)(=O)c2ccc(Br)cc2-c2ccccc2Cl)CC1 [Compound 66, (R)-1-((5-bromo-2′-chloro-[1,1′-biphenyl]-2-yl)sulfonyl)-N-(1,1-dioxido-2,3-dihydrothiophen-3-yl)-4-fluoropiperidine-4-carboxamide]",37.9 nM
8,"O=C(N[C@H]1C=CS(=O)(=O)C1)C1(F)CCN(S(=O)(=O)c2ccc(Br)cc2-c2ccccc2Cl)CC1 [Compound 67, (S)-1-((5-bromo-2′-chloro-[1,1′-biphenyl]-2-yl)sulfonyl)-N-(1,1-dioxido-2,3-dihydrothiophen-3-yl)-4-fluoropiperidine-4-carboxamide]",95.6 nM
9,"COCCc1cccc(-c2cc(Cl)ccc2S(=O)(=O)N2CCC(F)(C(=O)N[C@@H](C)/C=C\S(C)(=O)=O)CC2)c1 [Compound 125, (S,Z)-1-((5-chloro-3′-(2-methoxyethyl)-[1,1′-biphenyl]-2-yl)sulfonyl)-4-fluoro-N-(4-(methylsulfonyl)but-3-en-2-yl)piperidine-4-carboxamide]",610 nM
10,"CC(O)c1ccc(S(=O)(=O)N2CCC(F)(C(=O)N[C@H](C)/C=C\S(C)(=O)=O)CC2)c(-c2ccccc2Cl)c1 (stereo partly drawn) [Compound 129, 1-((2′-chloro-5-(1-hydroxyethyl)-[1,1′-biphenyl]-2-yl)sulfonyl)-4-fluoro-N-((R,Z)-4-(methylsulfonyl)but-3-en-2-yl)piperidine-4-carboxamide]",440 nM
11,"C[C@H](/C=C/C(=O)N1CC(F)(F)C1)NC(=O)C1(F)CCN(S(=O)(=O)c2ccc(C#N)cc2-c2ccccc2Cl)CC1 [Compound 136, (R,E)-1-((2′-chloro-5-cyano-[1,1′-biphenyl]-2-yl)sulfonyl)-N-(5-(3,3-difluoroazetidin-1-yl)-5-oxopent-3-en-2-yl)-4-fluoropiperidine-4-carboxamide]",190 nM
12,"COc1ccc(S(=O)(=O)N2CCC(F)(C(=O)N[C@H](C)/C=C/C(=O)N3CC(F)(F)C3)CC2)c(-c2ccccc2Cl)c1 [Compound 137, (R,E)-1-((2′-chloro-5-methoxy-[1,1′-biphenyl]-2-yl)sulfonyl)-N-(5-(3,3-difluoroazetidin-1-yl)-5-oxopent-3-en-2-yl)-4-fluoropiperidine-4-carboxamide]",380 nM

# Results, then the molecule that gave them:
row,IC50,SMILES
1,710 nM,"Cc1cccc(-c2cc(Br)ccc2S(=O)(=O)N2CCC(F)(C(=O)N[C@H](C)/C=C\S(C)(=O)=O)CC2)c1Cl [Compound 59, (R,Z)-1-((5-bromo-2′-chloro-3′-methyl-[1,1′-biphenyl]-2-yl)sulfonyl)-4-fluoro-N-(4-(methylsulfonyl)but-3-en-2-yl)piperidine-4-carboxamide]"
2,810 nM,"Cc1cccc(Cl)c1-c1cc(Br)ccc1S(=O)(=O)N1CCC(F)(C(=O)N[C@H](C)/C=C\S(C)(=O)=O)CC1 [Compound 60, 1-((5-bromo-2′-chloro-6′-methyl-[1,1′-biphenyl]-2-yl)sulfonyl)-4-fluoro-N-((R,Z)-4-(methylsulfonyl)but-3-en-2-yl)piperidine-4-carboxamide]"
3,75 nM,"CS(=O)(=O)/C=C/CNC(=O)C1(F)CCN(S(=O)(=O)c2ccc(Br)cc2-c2ccccc2Cl)CC1 [Compound 64, (E)-1-((5-bromo-2′-chloro-[1,1′-biphenyl]-2-yl)sulfonyl)-4-fluoro-N-(3-(methylsulfonyl)allyl)piperidine-4-carboxamide]"
4,670 nM,"C=C(C#N)CNC(=O)C1(F)CCN(S(=O)(=O)c2ccc(Br)cc2-c2ccccc2Cl)CC1 [Compound 72, 1-((5-bromo-2′-chloro-[1,1′-biphenyl]-2-yl)sulfonyl)-N-(2-cyanoallyl)-4-fluoropiperidine-4-carboxamide]"
5,140 nM,"C[C@@H](/C=C/S(=O)(=O)C1CNC1)NC(=O)C1(F)CCN(S(=O)(=O)c2ccc(Br)cc2-c2ccccc2Cl)CC1 [Compound 75, (S,E)-N-(4-(azetidin-3-ylsulfonyl)but-3-en-2-yl)-1-((5-bromo-2′-chloro-[1,1′-biphenyl]-2-yl)sulfonyl)-4-fluoropiperidine-4-carboxamide]"
6,32 nM,"C[C@H](/C=C/S(=O)(=O)C1CNC1)NC(=O)C1(F)CCN(S(=O)(=O)c2ccc(Br)cc2-c2ccccc2Cl)CC1 [Compound 76, (R,E)-N-(4-(azetidin-3-ylsulfonyl)but-3-en-2-yl)-1-((5-bromo-2′-chloro-[1,1′-biphenyl]-2-yl)sulfonyl)-4-fluoropiperidine-4-carboxamide]"
7,128 nM,"CC[C@H](/C=C/S(=O)(=O)C1CNC1)NC(=O)C1(F)CCN(S(=O)(=O)c2ccc(Br)cc2-c2ccccc2Cl)CC1 [Compound 77, (R,E)-N-(1-(azetidin-3-ylsulfonyl)pent-1-en-3-yl)-1-((5-bromo-2′-chloro-[1,1′-biphenyl]-2-yl)sulfonyl)-4-fluoropiperidine-4-carboxamide]"
8,461 nM,"CC[C@@H](/C=C/S(=O)(=O)C1CNC1)NC(=O)C1(F)CCN(S(=O)(=O)c2ccc(Br)cc2-c2ccccc2Cl)CC1 [Compound 78, (S,E)-N-(1-(azetidin-3-ylsulfonyl)pent-1-en-3-yl)-1-((5-bromo-2′-chloro-[1,1′-biphenyl]-2-yl)sulfonyl)-4-fluoropiperidine-4-carboxamide]"
9,198 nM,"CC[C@@H](/C=C\S(C)(=O)=O)NC(=O)C1(F)CCN(S(=O)(=O)c2ccc(Br)cc2-c2ccccc2Cl)CC1 [Compound 82, (S,Z)-1-((5-bromo-2′-chloro-[1,1′-biphenyl]-2-yl)sulfonyl)-4-fluoro-N-(1-(methylsulfonyl)pent-1-en-3-yl)piperidine-4-carboxamide]"
10,280 nM,"C[C@H](/C=C\S(C)(=O)=O)NC(=O)C1(F)CCN(S(=O)(=O)c2ccc(CCO)cc2-c2ccccc2Cl)CC1 [Compound 128, (R,Z)-1-((2′-chloro-5-(2-hydroxyethyl)-[1,1′-biphenyl]-2-yl)sulfonyl)-4-fluoro-N-(4-(methylsulfonyl)but-3-en-2-yl)piperidine-4-carboxamide]"
11,470 nM,"C[C@H](/C=C\S(C)(=O)=O)NC(=O)C1(F)CCN(S(=O)(=O)c2ccc(CO)cc2-c2ccccc2Cl)CC1 [Compound 130, (R,Z)-1-((2′-chloro-5-(hydroxymethyl)-[1,1′-biphenyl]-2-yl)sulfonyl)-4-fluoro-N-(4-(methylsulfonyl)but-3-en-2-yl)piperidine-4-carboxamide]"
12,220 nM,"COC1(C(=O)N[C@H](C)/C=C\S(C)(=O)=O)CCN(S(=O)(=O)c2ccc(Br)cc2-c2ccccc2Cl)CC1 [Compound 133, (R,Z)-1-((5-bromo-2′-chloro-[1,1′-biphenyl]-2-yl)sulfonyl)-4-methoxy-N-(4-(methylsulfonyl)but-3-en-2-yl)piperidine-4-carboxamide]"
